Molecules are shown by their SMILES.

The values below come from US10532066B2, “Surfactant lipids, compositions thereof, and uses thereof” (National Jewish Health, priority 2007, dated 2020).

For the test, the system named is Respiratory Syncytial Virus (RSV). The experiment in a line: Cytopathic effects of RSV upon BEAS2B cells (photomicrography). Type of test: cell-based. On the procedure:
Monolayers of BEAS2B cells were infected with RSV at a multiplicity of 3 for 72 h. Infections were performed on cells in either the absence or the presence of POPG (200 ug/ml). The cell monolayers were photographed at a magnification of 200×. Controls consisted of no viral challenge in either the presence or absence of POPG as indicated.
Monolayers of BEAS2B cells were infected with RSV at a multiplicity of 3 for 72 h. Infections were performed on cells in either the absence (b) or the presence (c,f) of POPG (200 ug/ml) and POPC (200 ug/ml) as indicated. Cells were photographed at a magnification of 200×. Controls (a,d,e) consisted of cell layers either not exposed to virus or exposed to POPG, and POPC in the absence of virus as indicated.
Monolayers of BEAS2B cells were infected with RSV at a multiplicity of 0.5-1, in either the presence or absence of 200 ug/ml POPG, or 200 ug/ml POPC, as indicated.
Monolayers of BEAS2B cells were either uninfected (CONL) or challenged with RSV at a multiplicity of 0.5/cell (RSV). Where indicated in the FIG. 44, RSV challenged cells were also treated with POPC (200 ug/ml) or POPG (200 ug/ml) liposomes; or POPG nanodiscs (nanoPOPG) at concentrations ranging from 100-300 ug/ml. Selected panels and fields are also shown at 400× magnification in FIG. 45.
Where indicated in FIG. 46, RSV challenged cells were also treated with nanodisc forms of dipalmitoyl-phosphatidylcholine (nanoDPPC), palmitoyl-oleoyl-phosphatidylcholine (nanoPOPC), or dioleoyl-phosphatidylcholine (nanoDOPC), dipalmitoyl-phosphatidylglycerol (nanoDPPG), dimyristoyl-phosphatidylglycerol (nanoDMPG), or dioleoyl-phosphatidylglycerol (nanoDOPG). At 72 h after infection, the cultures were examined by photomicrography at a magnification of 200×.

Take `CCCCCCCC/C=C\CCCCCCCC(=O)O[C@H](COC(=O)CCCCCCCCCCCCCCC)COP(=O)(O)OCC(O)CO` (some centres unmarked) [POPG, palmitoyl-oleoyl-phosphatidylglycerol]: for the setting “multiplicity 0.5-1, 72 h, 200 ug/ml”, the “killing of cells by RSV” value is “prevents the killing”. Also, the “cytopathic effects of RSV” value (multiplicity 3, 72 h, lipid 200 ug/ml) is reported as “prevents the cytopathic effects”.
